These results are taken from US20090098097A1, “COMPOSITION FOR NORMALIZING BLOOD PRESSURE” (KANEKA CORPORATION, priority 2006, published 2009).

Assay [1] deals with healthy male and female volunteers. Description: Evaluation of blood pressure normalization by reduced coenzyme Q10 in healthy subjects. The class given is in vivo, human. The conditions noted are these: for systolic blood pressure / diastolic blood pressure relative to before ingestion (100): 4 weeks after ingestion; for systolic blood pressure: before breakfast; for change in blood pressure after ingestion as compared to before ingestion (in words): 150 mg per day for 4 weeks. The method, then:
Healthy male and female volunteers (20 subjects) ingested 5 soft capsules (total 150 mg) per day each containing 30 mg of reduced coenzyme Q10 (containing about 2% of oxidized coenzyme Q10), and the blood pressure before breakfast was measured before and after ingestion for 4 weeks. After the measurement, the subjects were divided into three groups of hypotension group (n=8, not more than 110 mmHg), normal blood pressure group (n=8, 110-130 mmHg) and mild hypertension group (n=4, 130-150 mmHg), according to the systolic blood pressure before ingestion, and analyzed.

Another assay has as its system healthy male volunteers. Description: Evaluation of blood pressure normalization by oxidized coenzyme Q10 in healthy subjects. The class given is in vivo, human. Conditions: for systolic blood pressure / diastolic blood pressure relative to before ingestion (100): 4 weeks after ingestion; for systolic blood pressure: before breakfast. The procedure:
Healthy male volunteers (22 subjects) ingested soft capsule preparation containing oxidized coenzyme Q10 (150 mg) by 6 capsules (total 900 mg) per day, and the blood pressure before breakfast was measured before and after ingestion for 4 weeks. After the measurement, the subjects were divided into three groups of hypotension group (n=6, not more than 110 mmHg), normal blood pressure group (n=8, 110-130 mmHg) and mild hypertension group (n=8, 130-150 mmHg), according to the systolic blood pressure before ingestion, and analyzed. […] Consequently, a hypotension improving effect of oxidized coenzyme Q10 in healthy human subjects has been clarified.

With `COc1c(O)c(C)c(C/C=C(\C)CC/C=C(\C)CC/C=C(\C)CC/C=C(\C)CC/C=C(\C)CC/C=C(\C)CC/C=C(\C)CC/C=C(\C)CC/C=C(\C)CCC=C(C)C)c(O)c1OC` [reduced coenzyme Q10], the systolic blood pressure was 117.5 ± 6.2 mmHg in assay [1] (hypotension group (n=8, not more than 110 mmHg), 150 mg per day soft capsules, before ingestion 99.6 ± 4.9); 125.1 ± 6.1 mmHg in assay [1] (mild hypertension group (n=4, 130-150 mmHg), 150 mg per day, before ingestion 140.5 ± 9.2); 125.5 ± 9.1 mmHg in assay [1] (normal blood pressure group (n=8, 110-130 mmHg), 150 mg per day, before ingestion 125.3 ± 3.1). The “change in blood pressure after ingestion as compared to before ingestion (in words)” value in assay [1] (hypotension group) is recorded as “significant increase in the blood pressure”; in assay [1] (mild hypertension group) it was “significant decrease in the blood pressure”; in assay [1] (normal blood pressure group) it was “did not show significant variations”. Besides, the “diastolic blood pressure relative to before ingestion (100)” value in assay [1] (hypotension group, 150 mg per day, **p < 0.01 U-test) is listed as “(118**)”; in assay [1] (mild hypertension group, 150 mg per day, *p < 0.05 U-test) it was “(89*)”; in assay [1] (normal blood pressure group, 150 mg per day) it was “(100)”.
`COC1=C(OC)C(=O)C(C/C=C(\C)CC/C=C(\C)CC/C=C(\C)CC/C=C(\C)CC/C=C(\C)CC/C=C(\C)CC/C=C(\C)CC/C=C(\C)CC/C=C(\C)CCC=C(C)C)=C(C)C1=O` [oxidized coenzyme Q10]: the systolic blood pressure in the assay with healthy male volunteers (hypotension group (n=6, not more than 110 mmHg), 900 mg per day soft capsules, before ingestion 105.5 ± 4.4) came to 126.5 ± 2.9 mmHg; in the assay with healthy male volunteers (mild hypertension group (n=8, 130-150 mmHg), 900 mg per day, before ingestion 135.8 ± 4.6), 134.8 ± 9.4 mmHg; in the assay with healthy male volunteers (normal blood pressure group (n=8, 110-130 mmHg), 900 mg per day, before ingestion 126.1 ± 2.7) it was 127.6 ± 7.7 mmHg. Also, the “diastolic blood pressure relative to before ingestion (100)” value in the assay with healthy male volunteers (hypotension group, 900 mg per day, **p < 0.01 U-test) is “(120**)”; in the assay with healthy male volunteers (mild hypertension group, 900 mg per day), “(100)”; in the assay on healthy male volunteers (normal blood pressure group, 900 mg per day) it was “(101)”. In the assay on healthy male volunteers (normal blood pressure group, 900 mg per day for 4 weeks), the “change in blood pressure after ingestion as compared to before ingestion (in words)” value is given as “did not show significant variations”.
